# Measurements from US20260234159A1, “SMALL MOLECULE TREATMENT OF FATTY LIVER DISEASE AND HCC” (SCANDIEDGE THERAPEUTICS AB, priority 2023, published 2026).
# pIC50: −log10 of the molar value.
# Columns and labels:
# HepG2 cells = assay: MTT cell viability / IC50 in growth media; format: cell-based, human; details: for pIC50: Homo sapiens, 48 h, HepG2, treatment for 2 days
# [1] = MTT cell viability / IC50 in growth media; format: cell-based, human; details: human, HepG2 cells, 10 μM; for viability at 2 days, 10 µM: treatment for 2 days
# [2] = In vivo toxicological study in rats: clinical observations and body weight; details: 300 mg/kg oral administration
# Experimental: Forty-two male and forty-two female rats of the Wistar strain were allocated to the study. Three groups of three males and three females were given doses of 30, 100 and 300 mg/kg of target compounds (Table 8). The vehicle was 1.5 w/w % HPMC, 1.5 w/w % PS80 in 10 mM PBS, pH 7 and dose volume were 5 mL/kg.
# The animals were acclimatised at least 14 day prior to the study and exposed to a 12 hours light, 12 hours dark light cycle. The formulations were administered via oral gavage. Administration occurred once daily in the morning for seven consecutive days.
# A check of animal health and welfare status was done at least once on working days and weekend days.
# Body weights were recorded the week before and within 24 hours before start of dosing, on Day 3 and on necropsy Day 8.
# [3] = In vivo toxicological study in rats: plasma chemistry; design: species or system rats of the Wistar strain
# Experimental: Forty-two male and forty-two female rats of the Wistar strain were allocated to the study. Three groups of three males and three females were given doses of 30, 100 and 300 mg/kg of target compounds (Table 8). The vehicle was 1.5 w/w % HPMC, 1.5 w/w % PS80 in 10 mM PBS, pH 7 and dose volume were 5 mL/kg. The animals were acclimatised at least 14 day prior to the study and exposed to a 12 hours light, 12 hours dark light cycle. The formulations were administered via oral gavage. Administration occurred once daily in the morning for seven consecutive days. Blood for scheduled haematology and plasma chemistry were taken at necropsy. For plasma chemistry, 0.6 ml blood (lithium heparin) per animal and for haematology, 0.5 ml blood (K2EDTA) per animal. The blood and plasma were analysed using Exigo analyzer and Vetscan equipment. Blood samples were kept in room temperature […] after collection and mixing. The blood samples were analysed as whole blood within 60 min of collection. The VetScan analyser was calibrated with calibration samples of known plasma levels of each parameter before start of analysis, occasionally during the analysis period of study samples and after completed analyses (Table 10).
# [4] = female, 30 mg/kg oral daily 7 d
# [5] = female, 100 mg/kg oral daily 7 d
# [6] = female, 300 mg/kg oral daily 7 d
smiles,measurement,setting,value
"N#Cc1c(NC(=O)c2cccc3ccccc23)sc2c1CCCC2 [JNK-IN-5A, N-(3-cyano-4,5,6,7-tetrahydrobenzo[b]thiophen-2-yl)-1-naphthamide]",dose dependence of cell viability,HepG2 cells; 30 μM to 30 nM,"non-dose-dependent, linear reduction in cell viability"
same,pIC50,HepG2 cells; 30 μM to 30 nM,4.44
same,"viability at 2 days, 10 µM",[1],59.7%
"COc1ccc(C(=O)Nc2sc3c(c2C#N)CCCCC3)cc1OC [PKL-A135, N-(3-cyano-5,6,7,8-tetrahydro-4H-cyclohepta[b]thiophen-2-yl)-3,4-dimethoxy-benzamide]","tolerability (adverse clinical signs, body weight, clinical pathology parameters)",[2],well tolerated
same,pIC50,HepG2 cells; 30 μM to 30 nM,4.92
same,cell viability of HepG2 cells,HepG2 cells; especially in cancerous media,significantly low cell viability
same,"viability at 4 day, 10 µM",[1]; day 4,15.9%
same,"viability at 2 days, 10 µM",[1],43.1%
same,ALB,[3]; [4],56 g/L
same,ALP,[3]; [4],117 U/L
same,ALT,[3]; [4],23 U/L
same,AMY,[3]; [4],564 U/L
same,BUN,[3]; [4],6.0 mmol/L
same,CA,[3]; [4],2.91 mmol/L
same,CRE,[3]; [4],31 µmol/L
same,GLOB,[3]; [4],8 g/L
same,GLU,[3]; [4],8.1 mmol/L
same,K+,[3]; [4],4.6 mmol/L
same,NA+,[3]; [4],141 mmol/L
same,PHOS,[3]; [4],2.30 mmol/L
same,TBIL,[3]; [4],5.3 µmol/L
same,TP,[3]; [4],64 g/L
same,ALB,[3]; [5],59 g/L
same,ALP,[3]; [5],126 U/L
same,ALT,[3]; [5],23 U/L
same,AMY,[3]; [5],589 U/L
same,BUN,[3]; [5],5.7 mmol/L
same,CA,[3]; [5],2.96 mmol/L
same,CRE,[3]; [5],44 µmol/L
same,GLOB,[3]; [5],11 g/L
same,GLU,[3]; [5],7.9 mmol/L
same,K+,[3]; [5],4.4 mmol/L
same,NA+,[3]; [5],140 mmol/L
same,PHOS,[3]; [5],2.34 mmol/L
same,TBIL,[3]; [5],5.0 µmol/L
same,TP,[3]; [5],71 g/L
same,ALB,[3]; [6],59 g/L
same,ALP,[3]; [6],156 U/L
same,ALT,[3]; [6],20 U/L
same,AMY,[3]; [6],590 U/L
same,BUN,[3]; [6],5.3 mmol/L
same,CA,[3]; [6],3.00 mmol/L
same,CRE,[3]; [6],41 µmol/L
same,GLOB,[3]; [6],9 g/L
same,GLU,[3]; [6],7.8 mmol/L
same,K+,[3]; [6],4.6 mmol/L
same,NA+,[3]; [6],142 mmol/L
same,PHOS,[3]; [6],2.91 mmol/L
same,TBIL,[3]; [6],5.3 µmol/L
same,TP,[3]; [6],67 g/L
same,ALB,"[3]; male, 30 mg/kg oral daily 7 d",50 g/L
same,ALP,"[3]; male, 30 mg/kg oral daily 7 d",234 U/L
same,ALT,"[3]; male, 30 mg/kg oral daily 7 d",33 U/L
same,AMY,"[3]; male, 30 mg/kg oral daily 7 d",757 U/L
same,BUN,"[3]; male, 30 mg/kg oral daily 7 d",5.6 mmol/L
same,CA,"[3]; male, 30 mg/kg oral daily 7 d",3.01 mmol/L
same,CRE,"[3]; male, 30 mg/kg oral daily 7 d",39 µmol/L
same,GLOB,"[3]; male, 30 mg/kg oral daily 7 d",15 g/L
same,GLU,"[3]; male, 30 mg/kg oral daily 7 d",8.5 mmol/L
same,K+,"[3]; male, 30 mg/kg oral daily 7 d",4.80 mmol/L
same,NA+,"[3]; male, 30 mg/kg oral daily 7 d",140 mmol/L
same,PHOS,"[3]; male, 30 mg/kg oral daily 7 d",2.20 mmol/L
same,TBIL,"[3]; male, 30 mg/kg oral daily 7 d",5.0 µmol/L
same,TP,"[3]; male, 30 mg/kg oral daily 7 d",65 g/L
same,ALB,"[3]; male, 100 mg/kg oral daily 7 d",50 g/L
same,ALP,"[3]; male, 100 mg/kg oral daily 7 d",259 U/L
same,ALT,"[3]; male, 100 mg/kg oral daily 7 d",25 U/L
same,AMY,"[3]; male, 100 mg/kg oral daily 7 d",770 U/L
same,BUN,"[3]; male, 100 mg/kg oral daily 7 d",5.6 mmol/L
same,CA,"[3]; male, 100 mg/kg oral daily 7 d",2.95 mmol/L
same,CRE,"[3]; male, 100 mg/kg oral daily 7 d",36 µmol/L
same,GLOB,"[3]; male, 100 mg/kg oral daily 7 d",12 g/L
same,GLU,"[3]; male, 100 mg/kg oral daily 7 d",8.9 mmol/L
same,K+,"[3]; male, 100 mg/kg oral daily 7 d",4.83 mmol/L
same,NA+,"[3]; male, 100 mg/kg oral daily 7 d",138 mmol/L
same,PHOS,"[3]; male, 100 mg/kg oral daily 7 d",2.51 mmol/L
same,TBIL,"[3]; male, 100 mg/kg oral daily 7 d",4.7 µmol/L
same,TP,"[3]; male, 100 mg/kg oral daily 7 d",61 g/L
same,ALB,"[3]; male, 300 mg/kg oral daily 7 d",50 g/L
same,ALP,"[3]; male, 300 mg/kg oral daily 7 d",275 U/L
same,ALT,"[3]; male, 300 mg/kg oral daily 7 d",28 U/L
same,AMY,"[3]; male, 300 mg/kg oral daily 7 d",835 U/L
same,BUN,"[3]; male, 300 mg/kg oral daily 7 d",5.7 mmol/L
same,CA,"[3]; male, 300 mg/kg oral daily 7 d",2.98 mmol/L
same,CRE,"[3]; male, 300 mg/kg oral daily 7 d",38 µmol/L
same,GLOB,"[3]; male, 300 mg/kg oral daily 7 d",13 g/L
same,GLU,"[3]; male, 300 mg/kg oral daily 7 d",9.0 mmol/L
same,K+,"[3]; male, 300 mg/kg oral daily 7 d",5.2 mmol/L
same,NA+,"[3]; male, 300 mg/kg oral daily 7 d",140 mmol/L
same,PHOS,"[3]; male, 300 mg/kg oral daily 7 d",2.64 mmol/L
same,TBIL,"[3]; male, 300 mg/kg oral daily 7 d",5.0 µmol/L
same,TP,"[3]; male, 300 mg/kg oral daily 7 d",63 g/L
COc1ccccc1NC(=O)N1CCc2c(sc(NC(=O)c3cccc4ccccc34)c2C#N)C1 [PKL-A152],"tolerability (adverse clinical signs, body weight, clinical pathology parameters)",[2],well tolerated
same,ALB,[3]; [4],56 g/L
same,ALP,[3]; [4],84 U/L
same,ALT,[3]; [4],23 U/L
same,AMY,[3]; [4],548 U/L
same,BUN,[3]; [4],4.9 mmol/L
same,CA,[3]; [4],2.90 mmol/L
same,CRE,[3]; [4],44 µmol/L
same,GLOB,[3]; [4],7 g/L
same,GLU,[3]; [4],8.0 mmol/L
same,K+,[3]; [4],2.9 mmol/L
same,NA+,[3]; [4],148 mmol/L
same,PHOS,[3]; [4],2.28 mmol/L
same,TBIL,[3]; [4],4.0 µmol/L
same,TP,[3]; [4],64 g/L
same,ALB,[3]; [5],58 g/L
same,ALP,[3]; [5],162 U/L
same,ALT,[3]; [5],20 U/L
same,AMY,[3]; [5],573 U/L
same,BUN,[3]; [5],6.0 mmol/L
same,CA,[3]; [5],2.87 mmol/L
same,CRE,[3]; [5],48 µmol/L
same,GLOB,[3]; [5],8 g/L
same,GLU,[3]; [5],7.8 mmol/L
same,K+,[3]; [5],4.5 mmol/L
same,NA+,[3]; [5],139 mmol/L
same,PHOS,[3]; [5],2.38 mmol/L
same,TBIL,[3]; [5],4.7 µmol/L
same,TP,[3]; [5],66 g/L
same,ALB,[3]; [6],56 g/L
same,ALP,[3]; [6],134 U/L
same,ALT,[3]; [6],21 U/L
same,AMY,[3]; [6],539 U/L
same,BUN,[3]; [6],5.2 mmol/L
same,CA,[3]; [6],2.92 mmol/L
same,CRE,[3]; [6],51 µmol/L
same,GLOB,[3]; [6],8 g/L
same,GLU,[3]; [6],7.7 mmol/L
same,K+,[3]; [6],4.8 mmol/L
same,NA+,[3]; [6],140 mmol/L
same,PHOS,[3]; [6],2.39 mmol/L
same,TBIL,[3]; [6],4.7 µmol/L
same,TP,[3]; [6],64 g/L
same,ALB,"[3]; male, 30 mg/kg oral daily 7 d",50 g/L
same,ALP,"[3]; male, 30 mg/kg oral daily 7 d",272 U/L
same,ALT,"[3]; male, 30 mg/kg oral daily 7 d",30 U/L
same,AMY,"[3]; male, 30 mg/kg oral daily 7 d",837 U/L
same,BUN,"[3]; male, 30 mg/kg oral daily 7 d",5.7 mmol/L
same,CA,"[3]; male, 30 mg/kg oral daily 7 d",2.99 mmol/L
same,CRE,"[3]; male, 30 mg/kg oral daily 7 d",42 µmol/L
same,GLOB,"[3]; male, 30 mg/kg oral daily 7 d",13 g/L
same,GLU,"[3]; male, 30 mg/kg oral daily 7 d",8.0 mmol/L
same,K+,"[3]; male, 30 mg/kg oral daily 7 d",4.6 mmol/L
same,NA+,"[3]; male, 30 mg/kg oral daily 7 d",140 mmol/L
same,PHOS,"[3]; male, 30 mg/kg oral daily 7 d",2.11 mmol/L
same,TBIL,"[3]; male, 30 mg/kg oral daily 7 d",4.0 µmol/L
same,TP,"[3]; male, 30 mg/kg oral daily 7 d",63 g/L
same,ALB,"[3]; male, 100 mg/kg oral daily 7 d",51 g/L
same,ALP,"[3]; male, 100 mg/kg oral daily 7 d",267 U/L
same,ALT,"[3]; male, 100 mg/kg oral daily 7 d",25 U/L
same,AMY,"[3]; male, 100 mg/kg oral daily 7 d",838 U/L
same,BUN,"[3]; male, 100 mg/kg oral daily 7 d",5.7 mmol/L
same,CA,"[3]; male, 100 mg/kg oral daily 7 d",2.98 mmol/L
same,CRE,"[3]; male, 100 mg/kg oral daily 7 d",42 µmol/L
same,GLOB,"[3]; male, 100 mg/kg oral daily 7 d",12 g/L
same,GLU,"[3]; male, 100 mg/kg oral daily 7 d",8.2 mmol/L
same,K+,"[3]; male, 100 mg/kg oral daily 7 d",4.7 mmol/L
same,NA+,"[3]; male, 100 mg/kg oral daily 7 d",141 mmol/L
same,PHOS,"[3]; male, 100 mg/kg oral daily 7 d",2.57 mmol/L
same,TBIL,"[3]; male, 100 mg/kg oral daily 7 d",5.0 µmol/L
same,TP,"[3]; male, 100 mg/kg oral daily 7 d",63 g/L
same,ALB,"[3]; male, 300 mg/kg oral daily 7 d",49 g/L
same,ALP,"[3]; male, 300 mg/kg oral daily 7 d",244 U/L
same,ALT,"[3]; male, 300 mg/kg oral daily 7 d",28 U/L
same,AMY,"[3]; male, 300 mg/kg oral daily 7 d",854 U/L
same,BUN,"[3]; male, 300 mg/kg oral daily 7 d",5.5 mmol/L
same,CA,"[3]; male, 300 mg/kg oral daily 7 d",3.04 mmol/L
same,CRE,"[3]; male, 300 mg/kg oral daily 7 d",51 µmol/L
same,GLOB,"[3]; male, 300 mg/kg oral daily 7 d",14 g/L
same,GLU,"[3]; male, 300 mg/kg oral daily 7 d",8.6 mmol/L
same,K+,"[3]; male, 300 mg/kg oral daily 7 d",4.5 mmol/L
same,NA+,"[3]; male, 300 mg/kg oral daily 7 d",143 mmol/L
same,PHOS,"[3]; male, 300 mg/kg oral daily 7 d",2.47 mmol/L
same,TBIL,"[3]; male, 300 mg/kg oral daily 7 d",4.7 µmol/L
same,TP,"[3]; male, 300 mg/kg oral daily 7 d",63 g/L
